Assay results reported in US7427623B2, “4-Amino-2,3-disubstituted thieno[2,3-d]pyrimidines and pharmacetical compositions thereof” (SmithKline Beecham Corporation, priority 2001, dated 2008).

What was measured:
[1] = target: T1, TIE2 intracellular domain/c-fms extracellular domain (TIE2/c-fms) chimeric protein (Homo sapiens, UniProt Q02763); assay: TIE-2 Autophosphorylation Assay (TIE2-C), ELISA; assay type: cell-based; settings: TIE2/c-fms expressing mouse 3T3 cells, MCSF activation, read-out: TIE2-C pIC50 (converted)
T1 construct: TIE2 intracellular domain/c-fms extracellular domain (TIE2/c-fms) chimeric protein; expressed in transfected cells; host or cells: mouse 3T3 cells
Protocol: TIE-2 Autophosphorylation Assay (TIE2-C)
The TIE-2 autophosphorylation assay used an ELISA method and a TIE2 intracellular domain/c-fms extracellular domain (TIE2/c-fms) chimeric protein expressing mouse 3T3 cells. This assay measured the autophosphorylation level of TIE2 protein expressed in cells. The cells were cultured in high glucose DMEM (Sigma) containing 10% serum at 37° C. in a humidified 10% CO2, 90% air incubator. The test compound (diluted from a 10 mM stock in DMSO, final DMSO concentration was 0.1%) was incubated with TIE2/c-fms expressing cells for 1 hr in serum free DMEM in 96 well plates followed by the activation of TIE2/c-fms receptor using c-fms ligand, MCSF (macrophage colony stimulating factor). […] The cell extracts were transferred into Rat anti-c-fms antibody coated 96 well plates and incubated for 12 hrs at 4 degrees. The extracts were removed by aspiration and the plate was incubated with biotinylated anti-phosphotyrosine antibody, PT66 (Sigma) and then with HRP (Horseradish Peroxidase)-labeled streptavidin (PIERCE). The optical density at 450 nm derived from HRP catalyzed TMB was measured with an ARVO multilabel counter. (Wallac Berthold Japan). The percent inhibition of activity was calculated relative to blank control wells. […] The IC50 values were converted to pIC50 values, i.e., −log IC50 in Molar concentration.

[2] = target: T2, GST-TIE2 (intracellular domains of human TIE2) (Homo sapiens, UniProt Q02763); assay: TIE-2 Enzyme assay (TIE2-E), LANCE method; assay type: biochemical; settings: GST-TIE2, 80 uM ATP, D1–15 peptide; read-out: TIE2-E pIC50 (converted)
T2 construct: made in house
Protocol: TIE-2 Enzyme assay (TIE2-E)
Preactivated GST-TIE2 was incubated for 30 mins at room temperature in 96 well plates with 1 uM D1–15 peptide, 80 uM ATP, 10 mM MgCl2, 0.1 mg/ml BSA and the test compound (diluted from a 10 mM stock in DMSO, final DMSO concentration was 2.4%) in 1 mM HEPES (pH 7.4). The reaction was stopped by the addition of EDTA (final concentration 45 mM). Streptavidin linked-APC (allophycocyanin, Molecular Probe) and Europium-labeled anti-phosphorylated tyrosine antibody (Wallac) were then added at the final concentration of 17 ug/well and 2.1 ug/well, respectively. The APC signal was measured using an ARVO multilabel counter. (Wallac Berthold Japan). The percent inhibition of activity was calculated relative to blank control wells. […] The IC50 values were converted to pIC50 values, i.e., −log IC50 in Molar concentration.

GST-VEGFR2 = target: T3, GST-VEGFR2 (Homo sapiens, UniProt P35968); assay: VEGF-R2 Enzyme Assay (VEGF-E), LANCE method; assay type: biochemical; settings: GST-VEGFR2, 75 uM ATP; read-out: VEGF-E pIC50 (converted)
T3 construct: GST-VEGFR2, baculovirus expressed recombinant constructs of the intracellular domains of human TIE2 tagged by GST; made in house
Protocol: VEGF-R2 Enzyme Assay (VEGF-E)
The VEGF enzyme assay used the LANCE method (Wallac) and GST-VEGFR2, baculovirus expressed recombinant constructs of the intracellular domains of human […] tagged by GST. […] The reaction was stopped by the addition of EDTA (final concentration 50 mM). […] The APC signal was measured using an ARVO multilabel counter (Wallac Berthold, Japan). The percent inhibition of activity was calculated relative to blank control wells. […] The IC50 values were converted to pIC50 values, i.e., −log IC50 in Molar concentration.

[3] = tested on: Human umbilical cord endothelial cells (HUVEC); assay: VEGF-Driven Cellular Proliferation Assay, BrdU Incorporation Assay (VEGF-C); assay type: cell-based; settings: Homo sapiens, read-out: VEGF-C pIC50 (converted)
Protocol: VEGF-Driven Cellular Proliferation Assay. BrdU Incorporation Assay (VEGF-C)
Human umbilical cord endothelial cells (HUVEC, Clonetics, CC2519) were passaged in Type I collagen-coated 100-mm petridishes in EGM-MV medium (Clonetics, CC3125) at 37 C in a humidified 5% CO2, 95% air incubator. […] After incubation overnight at 37° C., the media were replaced with 100 ul of M199 serum-free medium containing compounds at various concentrations with 0.6% DMSO and gentamicin. The compounds were diluted in serum-free M199 medium from 10 mM stock solutions prepared in 100% DMS0. […] The cells were pulsed with bromodeoxyuridine (BrdU at 10 uM in serum-free M199) at 37° C. for an additional 24 h. […] The optical density at 450 nm was measured with a multilabel counter (ARVO SX, Wallac). The percent inhibition of cell growth was calculated relative to blank control wells. […] The IC50 values were converted to pIC50 values, i.e., −log IC50 in Molar concentration.

Recombinant GST-Tie2 = target: T4, Recombinant GST-Tie2 (Homo sapiens, UniProt Q02763); assay: Tie2 Fluorescence Polarization Kinase Activity Assay (TIE2-FP); assay type: biochemical; settings: 200 μM ATP, activated Tie2, fluorescence polarization
T4 construct: GST
T4 sequence (Q02763 23-1124): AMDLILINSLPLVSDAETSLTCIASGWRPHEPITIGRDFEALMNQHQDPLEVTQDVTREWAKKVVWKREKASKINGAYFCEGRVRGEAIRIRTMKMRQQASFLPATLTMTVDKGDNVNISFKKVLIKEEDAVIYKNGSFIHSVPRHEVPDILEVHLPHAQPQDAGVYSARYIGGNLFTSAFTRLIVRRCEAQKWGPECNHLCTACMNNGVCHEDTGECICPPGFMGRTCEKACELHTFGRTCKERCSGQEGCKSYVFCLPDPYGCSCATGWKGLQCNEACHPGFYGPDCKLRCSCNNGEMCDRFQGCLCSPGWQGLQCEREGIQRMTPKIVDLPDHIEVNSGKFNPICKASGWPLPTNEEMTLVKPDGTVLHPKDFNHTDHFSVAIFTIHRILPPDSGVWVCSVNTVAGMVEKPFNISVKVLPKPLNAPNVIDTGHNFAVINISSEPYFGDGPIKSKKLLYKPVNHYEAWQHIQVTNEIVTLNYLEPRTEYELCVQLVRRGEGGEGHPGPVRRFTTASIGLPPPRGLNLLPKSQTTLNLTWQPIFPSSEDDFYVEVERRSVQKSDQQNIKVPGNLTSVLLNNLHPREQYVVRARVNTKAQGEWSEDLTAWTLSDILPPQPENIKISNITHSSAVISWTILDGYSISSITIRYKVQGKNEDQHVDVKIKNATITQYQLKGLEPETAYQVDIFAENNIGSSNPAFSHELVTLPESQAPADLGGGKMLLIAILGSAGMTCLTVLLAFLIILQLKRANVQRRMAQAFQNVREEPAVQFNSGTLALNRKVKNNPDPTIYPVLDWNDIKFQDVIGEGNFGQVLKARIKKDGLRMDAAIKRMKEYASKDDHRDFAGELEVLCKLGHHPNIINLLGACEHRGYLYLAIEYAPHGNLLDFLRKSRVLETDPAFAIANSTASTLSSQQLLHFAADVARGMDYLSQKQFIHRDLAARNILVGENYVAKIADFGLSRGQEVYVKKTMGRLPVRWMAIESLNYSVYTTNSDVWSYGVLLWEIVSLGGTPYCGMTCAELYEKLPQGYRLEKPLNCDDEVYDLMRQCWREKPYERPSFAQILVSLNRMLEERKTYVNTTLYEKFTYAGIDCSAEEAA
Protocol: Tie2 Fluorescence Polarization Kinase Activity Assay: (TIE2-FP)
Activation of Recombinant Tie2 Activation:
Recombinant GST-Tie2 was activated by incubating the enzyme in 20 mM Tris-HCl, pH 7.5, 12 mM MgCl2, 100 mM NaCl, 20 μM sodium vanidate, 1 mM DTT and 300 μM ATP at room temperature for 2 hours. […] The activated enzyme was stored as aliquots at −80° C. in 20 mM Tris-HCl, pH 7.5 and 11 mM NaCl.
The final assay conditions were 50 mM HEPES, pH 7.5, 5% DMSO (when screening compounds), 200 μM ATP, 5 mM MgCl2, 1 mM DTT, 50 μM sodium vanidate, 1 nM activated enzyme, and 200 μM peptide. […] Panvera Anti-phosphotyrosine antibody (Cat#P2840) and PTK Green Tracer (Cat#P2842) were used to detect the phosphorylated peptide. […] IC50's were then determined from the % polarization using normal calculation methods.

T2 sequence (Q02763 762-1104): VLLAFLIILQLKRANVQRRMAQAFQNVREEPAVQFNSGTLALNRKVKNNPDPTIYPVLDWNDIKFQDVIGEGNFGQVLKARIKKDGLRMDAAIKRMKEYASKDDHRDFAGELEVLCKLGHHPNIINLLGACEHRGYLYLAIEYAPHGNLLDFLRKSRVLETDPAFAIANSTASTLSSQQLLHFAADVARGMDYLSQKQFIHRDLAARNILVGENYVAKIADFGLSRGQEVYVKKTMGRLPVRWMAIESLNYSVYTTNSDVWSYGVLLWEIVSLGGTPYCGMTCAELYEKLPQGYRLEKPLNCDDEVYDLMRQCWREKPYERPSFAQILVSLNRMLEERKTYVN
T3 sequence (P35968 786-1356 limits assumed): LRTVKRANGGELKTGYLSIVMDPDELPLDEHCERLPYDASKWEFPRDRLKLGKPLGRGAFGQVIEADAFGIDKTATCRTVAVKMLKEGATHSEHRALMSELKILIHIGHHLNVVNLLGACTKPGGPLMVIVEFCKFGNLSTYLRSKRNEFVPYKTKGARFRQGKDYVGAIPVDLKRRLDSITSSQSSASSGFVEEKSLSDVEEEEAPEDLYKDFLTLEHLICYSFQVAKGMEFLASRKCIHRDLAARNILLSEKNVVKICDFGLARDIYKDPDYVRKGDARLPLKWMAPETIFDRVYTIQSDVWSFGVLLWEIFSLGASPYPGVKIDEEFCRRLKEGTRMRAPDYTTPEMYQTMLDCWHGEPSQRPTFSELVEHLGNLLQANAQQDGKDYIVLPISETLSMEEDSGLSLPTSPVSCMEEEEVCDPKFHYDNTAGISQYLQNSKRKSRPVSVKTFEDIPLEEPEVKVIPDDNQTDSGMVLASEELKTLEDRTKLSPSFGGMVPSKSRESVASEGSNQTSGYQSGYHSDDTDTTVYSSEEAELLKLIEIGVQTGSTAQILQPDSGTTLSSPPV
T1 sequence (Q02763 770-1124 limits assumed, change not shown): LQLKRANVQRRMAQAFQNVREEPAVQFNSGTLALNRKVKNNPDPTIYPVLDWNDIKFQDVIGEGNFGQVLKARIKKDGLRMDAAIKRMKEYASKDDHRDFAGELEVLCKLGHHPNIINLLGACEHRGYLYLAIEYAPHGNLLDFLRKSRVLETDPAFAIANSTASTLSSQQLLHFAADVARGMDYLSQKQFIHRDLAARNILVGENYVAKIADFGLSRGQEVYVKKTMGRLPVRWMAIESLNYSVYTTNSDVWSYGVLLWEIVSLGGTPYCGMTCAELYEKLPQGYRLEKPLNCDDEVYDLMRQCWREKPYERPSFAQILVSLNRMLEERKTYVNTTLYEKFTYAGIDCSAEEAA
T1 sequence (P07333 20-517 partner limits assumed): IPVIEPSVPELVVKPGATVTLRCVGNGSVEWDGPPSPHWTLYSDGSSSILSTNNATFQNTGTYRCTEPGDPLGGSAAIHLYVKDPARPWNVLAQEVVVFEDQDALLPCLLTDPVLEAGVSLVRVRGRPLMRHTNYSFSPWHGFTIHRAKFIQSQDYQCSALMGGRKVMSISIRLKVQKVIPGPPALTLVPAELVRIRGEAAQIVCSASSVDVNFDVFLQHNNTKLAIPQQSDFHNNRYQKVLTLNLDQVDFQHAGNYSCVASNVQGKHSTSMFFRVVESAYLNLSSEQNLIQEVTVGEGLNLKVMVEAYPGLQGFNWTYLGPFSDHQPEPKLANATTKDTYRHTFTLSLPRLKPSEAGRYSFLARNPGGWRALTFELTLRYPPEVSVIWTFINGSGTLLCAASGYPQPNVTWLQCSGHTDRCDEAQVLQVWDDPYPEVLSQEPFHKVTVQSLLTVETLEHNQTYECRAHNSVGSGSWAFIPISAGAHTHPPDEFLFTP
T1 sequence (P09603 33-190 partner limits assumed): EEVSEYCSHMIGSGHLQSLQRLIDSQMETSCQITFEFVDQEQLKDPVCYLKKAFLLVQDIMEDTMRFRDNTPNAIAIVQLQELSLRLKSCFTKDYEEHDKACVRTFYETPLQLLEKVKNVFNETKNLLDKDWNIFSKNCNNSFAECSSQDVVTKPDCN

Compound	IC50 [1]	IC50 [2]	IC50 (GST-VEGFR2)	IC50 [3]	IC50 (Recombinant GST-Tie2)
CNS(=O)(=O)c1cccc(-c2oc3ncnc(N)c3c2-c2ccc(-c3ccccc3)cc2)c1 [Example 200, 4-Amino-3-(4-biphenyl)-2-(3-(N-methylsulfonyl)phenyl)furo[2,3-d]pyrimidine]	100 to 1000 nM	100 to 1000 nM	< 100 nM	1000 to 10000 nM	
Nc1ncnc2scc(-c3ccc(NC(=O)Nc4cc(C(F)(F)F)ccc4F)cc3)c12 [Example 276, 4-Amino-3-(4-((2-fluoro-5-(trifluoromethyl)phenyl)aminocarbonylamino)phenyl)thieno[2,3-d]pyrimidine]					1.8 nM
